Values of other authors, collected in publication PMC6311893, “Computational prediction of plasma protein binding of cyclic peptides from small molecule experimental data using sparse modeling techniques” (BMC Bioinformatics, 2018).

Test system: plasma protein
Settings: cited from earlier work

Molecule | PPB (fb)
COc1cc(C)c(/C=C/C(C)=C/C=C/C(C)=C/C(=O)O)c(C)c1C [acitretin] | 0.99

Same assay, conditions: fraction bound to plasma protein; small molecule dataset, sheet 1-SM (Set Dte = test, Dtr = training); ref Ingle et al.; cited from earlier work

Molecule | PPB (fb)
COc1cccc(-n2cc(C(=O)O)c(=O)c3cc(F)c(N4CCNCC4)cc32)c1 [5b(m-OCH3)] | 0.35
COc1ccccc1OCCNCC(O)c1ccc(C)c(S(N)(=O)=O)c1 (centres unmarked) [amosulalol] | 0.98
CN1CCN(C(c2ccccc2)c2ccc(Cl)cc2)CC1 (centres unmarked) [chlorcyclizine] | 0.87
C=CCNc1nc(NCC=C)nc(N2CCN(C(c3ccc(F)cc3)c3ccc(F)cc3)CC2)n1 [almitrine] | 0.99
Cc1cccc(C)c1NC(=O)C1CCCCN1C (centres unmarked) [Mepivacaine] | 0.77
O=C1CCc2cc(OCCCCc3nnnn3C3CCCCC3)ccc2N1 [cilostazol] | 0.96
CCOc1nc2cccc(C(=O)O)c2n1Cc1ccc(-c2ccccc2-c2nnn[nH]2)cc1 [candesartan] | 0.99
C[C@]12C=CC(=O)C=C1C(Cl)=C[C@@H]1[C@@H]2[C@@H](O)C[C@@]2(C)[C@H]1CC[C@]2(O)C(=O)CO [cloprednol] | 0.8
N=C(N)c1ccc(C(=O)N[C@@H](Cc2ccc(O)cc2)C(=O)N2CCC(OCC(=O)O)CC2)cc1 [Lamifiban] | 0.06
O=C(O)C1=C(CSc2nnnn2CS(=O)(=O)O)CS[C@@H]2[C@H](NC(=O)[C@H](O)c3ccccc3)C(=O)N12 [cefonicid] | 0.98
CCN1CCCC1CNC(=O)c1cc(S(N)(=O)=O)ccc1OC (centres unmarked) [sulpiride] | 0.25
COc1cccc(OC)c1CC(=O)NC1C(=O)N2C1SC(C)(C)C2C(=O)O (centres unmarked) [penicillin18] | 0.77
O=C(O)[C@H]1/C(=C/CO)O[C@@H]2CC(=O)N21 [clavulanate] | 0.23
NC1CCN(c2c(F)cc3c(=O)c(C(=O)O)cn(C4CC4)c3c2Cl)C1 (centres unmarked) [Clinafloxacin] | 0.04
Clc1ccc2c(c1)C(N1CCNCC1)=Nc1ccccc1O2 [amoxapine] | 0.9

Same assay, conditions: fraction bound to plasma protein; small molecule dataset, sheet 1-SM, Set Dtr; ref Ingle et al.; cited from earlier work

Molecule | PPB (fb)
COC(=O)Nc1nc2ccc(C(=O)c3ccccc3)cc2[nH]1 [Mebendazole] | 0.93
Cc1c(C)c2c(c(C)c1O)CCC(C)(COc1ccc(CC3SC(=O)NC3=O)cc1)O2 (centres unmarked) [troglitazone] | 0.99
COc1ccc(Cl)cc1C(=O)NCCc1ccc(S(=O)(=O)NC(=O)NC2CCCCC2)cc1 [Glyburide] | 0.98
C[C@]12CC[C@@H]3c4ccc(O)cc4CC[C@H]3[C@@H]1CC[C@@H]2O [Estradiol] | 0.984
COc1cc2c(cc1O)CCNC21CSC2c3c(OC(C)=O)c(C)c4c(c3C(COC1=O)N1C(O)C3Cc5cc(C)c(OC)c(O)c5C(C21)N3C)OCO4 (centres unmarked) [Trabectedin (ET-743__ Yondelis)] | 0.94
CC(=O)O[C@H]1C(=O)[C@@]2(C)[C@H]([C@H](OC(=O)c3ccccc3)[C@]3(O)C[C@H](OC(=O)[C@H](O)[C@@H](NC(=O)c4ccccc4)c4ccccc4)C(C)=C1C3(C)C)[C@]1(OC(C)=O)CO[C@@H]1C[C@@H]2O [Paclitaxel] | 0.76
O=C(NCCN1CCOCC1)c1ccc(Cl)cc1 [Moclobemide] | 0.36
NCC[C@H](O)C(=O)N[C@@H]1C[C@H](N)[C@@H](O[C@H]2O[C@H](CN)[C@@H](O)[C@H](O)[C@H]2O)[C@H](O)[C@H]1O[C@H]1O[C@H](CO)[C@@H](O)[C@H](N)[C@H]1O [Amikacin] | 0.09
NCCCCCC(=O)O [Aminohexanoic acid] | 0.08
COc1ccccc1N1CCN(CCCNc2cc(=O)n(C)c(=O)n2C)CC1 [urapidil] | 0.8
Nc1cc(-c2ccncc2)c[nH]c1=O [Amrinone] | 0.11
O=C(c1ccc(F)cc1)C1CCN(CCn2c(=O)[nH]c3ccccc3c2=O)CC1 [Ketanserin] | 0.95
C[C@H](O)C(=O)Nc1c(I)c(C(=O)NC(CO)CO)c(I)c(C(=O)NC(CO)CO)c1I [Iopamidol] | 0
CCCCCN(CCCOC)C(=O)[C@@H](CCC(=O)O)NC(=O)c1ccc(Cl)c(Cl)c1 [Dexloxiglumide] | 0.98
C[C@@H](O)[C@H]1C(=O)N2C(C(=O)O)=C(S[C@@H]3CN[C@H](C(=O)Nc4cccc(C(=O)O)c4)C3)[C@H](C)[C@H]12 [Ertapenem] | 0.91
NS(=O)(=O)c1cc(C2(O)NC(=O)c3ccccc32)ccc1Cl (centres unmarked) [Chlorthalidone] | 0.75
COc1ccccc1Oc1c(NS(=O)(=O)c2ccc(C(C)(C)C)cc2)nc(-c2ncccn2)nc1OCCO [Bosentan] | 0.97
CCCCC1=NC2(CCCC2)C(=O)N1Cc1ccc(-c2ccccc2-c2nnn[nH]2)cc1 [Irbesartan] | 0.9
COc1cccc2c1C(=O)c1c(O)c3c(c(O)c1C2=O)C[C@@](O)(C(=O)CO)C[C@@H]3O[C@H]1C[C@H](N)[C@H](O)[C@H](C)O1 [Doxorubicin] | 0.73

Same assay, conditions: fraction bound to plasma protein; small molecule dataset, sheet 1-SM; ref Ingle et al.; cited from earlier work

Molecule | PPB (fb)
COc1ccc(CCN(C)CCCC(C#N)(c2cc(OC)c(OC)c(OC)c2)C(C)C)cc1OC (centres unmarked) [gallopamil] | 0.9
Nc1ccc(O)c(C(=O)O)c1 [mesalamine] | 0.45
Nc1ccc(S(=O)(=O)Nc2nccs2)cc1 [sulfathiazole] | 0.67
CC(C(=O)NCCCN1CCCC1)c1ccc(OS(=O)(=O)C(F)(F)F)cc1 (centres unmarked) [JMC_05] | 0.62
COc1ccccc1Oc1c(NS(=O)(=O)c2ccc(C(C)C)cn2)nc(-c2ccnc(-c3nnn[nH]3)c2)nc1OCCO [Tezosentan] | 0.99
CN(C)CCc1c[nH]c2ccc(C[C@H]3COC(=O)N3)cc12 [Zolmitriptan] | 0.25
C1=Cc2cccc(OCC3CNCCO3)c2C1 (centres unmarked) [indeloxazine] | 0.94
Oc1ccc(C2CNCCc3c2cc(O)c(O)c3Cl)cc1 (centres unmarked) [fenoldopam] | 0.88
O=C(O)Cc1ccccc1Oc1ccc(Cl)cc1Cl [fenclofenac] | 0.99
COCC(=O)NC1C(=O)N2C1SC(C)(C)C2C(=O)O (centres unmarked) [penicillin5] | 0.07
COC(CC(=O)NC1C(=O)N2C1SC(C)(C)C2C(=O)O)c1cccs1 (centres unmarked) [penicillin73] | 0.59
CC(CN(C)C)CN1c2ccccc2CCc2ccccc21 (centres unmarked) [Trimipramine] | 0.95
CC(=O)N[C@H]1[C@H]([C@H](O)[C@H](O)CO)OC(C(=O)O)=C[C@@H]1N=C(N)N [Zanamivir] | 0.09
O=C1C(CC[S+]([O-])c2ccccc2)C(=O)N(c2ccccc2)N1c1ccccc1 (centres unmarked) [Sulfinpyrazone] | 0.98
O=C1c2ccccc2C(=O)C1c1ccccc1 [phenindione] | 0.97
CO[C@@H]1[C@@H](OC(N)=O)[C@@H](O)[C@H](Oc2ccc3c(O)c(NC(=O)c4ccc(O)c(CC=C(C)C)c4)c(=O)oc3c2C)OC1(C)C [Novobiocin] | 0.9
CC(Oc1cc(Cl)cc(Cl)c1)C(=O)NC1C(=O)N2C1SC(C)(C)C2C(=O)O (centres unmarked) [penicillin59] | 0.97
CCCCCCCCCCC[C@@H](C[C@@H]1OC(=O)[C@H]1CCCCCC)OC(=O)[C@H](CC(C)C)NC=O [orlistat] | 0.99
CO[C@H]1C[C@@H]2CC[C@@H](C)[C@@](O)(O2)C(=O)C(=O)N2CCCC[C@H]2C(=O)O[C@H]([C@H](C)C[C@@H]2CC[C@@H](OCCO)[C@H](OC)C2)CC(=O)[C@H](C)/C=C(\C)[C@@H](O)[C@@H](OC)C(=O)[C@H](C)C[C@H](C)/C=C/C=C/C=C/1C [everolimus] | 0.74
Clc1ccccc1CN1CCc2sccc2C1 [ticlopidine] | 0.96
CC(=O)Oc1cc(C(C)C)c(OCCN(C)C)cc1C [Moxisylyte] | 0.26
CO[C@H]1/C=C/O[C@@]2(C)Oc3c(C)c(O)c4c(O)c(c(/C=N/N5CCN(C6CCCC6)CC5)c(O)c4c3C2=O)NC(=O)/C(C)=C\C=C\[C@H](C)[C@H](O)[C@@H](C)[C@@H](O)[C@@H](C)[C@H](OC(C)=O)[C@@H]1C [Rifapentine] | 0.93

Same assay, conditions: plasma; cited from earlier work

Molecule | PPB (fb)
Oxytocin [reference compound] | 0
Eptifibatide [reference compound] | 0.25
Anidulafungin [reference compound] | 0.84
Vancomycin [reference compound] | 0.37
ceftibuten | 0.65
C[C@]12CC[C@H]3[C@@H](CCC4=CC(=O)CC[C@@]43C)[C@@H]1CC[C@@H]2O [Testosterone] | 0.6
C#CC(O)(/C=C/Cl)CC (centres unmarked) [ethchlorvynol] | 0.6
C=C(Br)CC1(C(C)C)C(=O)NC(=O)NC1=O [ibomal] | 0.34
Cc1ccccc1-n1c(C)nc2ccccc2c1=O [methaqualone] | 0.85
lacidipine | 0.95
CCCC(C)C1(CC)C(=O)NC(=S)NC1=O (centres unmarked) [Thiopental] | 0.84
O=C1CN=C(c2ccccc2Cl)c2cc([N+](=O)[O-])ccc2N1 [Clonazepam] | 0.85
cefotiam | 0.4
Cefodizime | 0.81
CN1C(=O)NC(=O)C(C)(C2=CCCCC2)C1=O (centres unmarked) [Hexobarbital] | 0.47

Test system: plasma protein
Settings: cited from earlier work
Remark: another data set of the same source

Molecule | PPB (fb)
Oxytocin [reference compound] | 0.3
Eptifibatide [reference compound] | 0.25
Teixobactin | 0.84
Terlipressin | 0.3
Dalbavancin | 0.93

Same assay, conditions: fraction bound (0-1); public cyclic peptide drug dataset; ref DrugBank [39]; cited from earlier work

Molecule | PPB (fb)
Caspofungin | 0.97
Vasopressin | 0.01
Romidepsin | 0.92-0.94
Colistin | 0.904-0.929
Oritavancin | 0.85
Dactinomycin | 0.05
Anidulafungin [reference compound] | 0.99
Polymyxin?B | 0.559
Vancomycin [reference compound] | 0.55
Pasireotide | 0.88
Telavancin | 0.897
Daptomycin | 0.85
Acetyl-Daptomycin | 0.12
Lanreotide | 0.79-0.83
Desmopressin | 0.5
